We go through 35 compounds from ChEMBL document CHEMBL4028802, “DILIrank: the largest reference drug list ranked by the risk for developing drug-induced liver injury in humans” (Drug Discov Today, 2016).

Starred links: 1 amine or outer side, 2 acyl side, 3 side chain; linkers in the order of their positions; H or OH if unused. Positions of bridges follow the written chain, without caps; N, C: chain ends. Non-standard residues stand in square brackets, D forms with d. Residues, ends and D or L forms follow the SMILES beside them. *: point of attachment. pTerphenylCO(4''-OnC5H11) = CCCCCOc1ccc(-c2ccc(-c3ccc(C(=O)*)cc3)cc2)cc1; Orn(4R-OH,5R-OH) = O=C([C@H](C[C@@H](O)[C@@H](O)N[*:3])N[*:1])[*:2]; hTyr(3S-OH,4S-OH) = N[C@H](C(=O)O)[C@H](O)[C@@H](O)c1ccc(O)cc1; Pro(3S-OH,4S-Me) = C[C@H]1CN[C@H](C(=O)O)[C@H]1O; Hyp = O=C(O)[C@@H]1C[C@@H](O)CN1

The species named for data set [1] is Homo sapiens. In words: Liver toxicity in human assessed as induction of drug-induced liver injury by measuring verified drug-induced liver injury concern status.
The species entered for data set [2] is Homo sapiens. Put plainly: Liver toxicity in human assessed as induction of drug-induced liver injury by measuring severity class index.
Throughout, for DILI severity class: key of the grades not given here.

For the compound `C[C@H]1CN(C[C@H](Cc2ccccc2)C(=O)NCC(=O)O)CC[C@@]1(C)c1cccc(O)c1` [ALVIMOPAN], in the data set filed under Homo sapiens [1], the DILI_Concern result is recorded as “No-Dili-Concern”. Besides, the DILI_severity_class in the data set filed under Homo sapiens [2] is reported as 0.
The corresponding values for `NC12CC3CC(CC(C3)C1)C2` [AMANTADINE] are “Ambiguous-Dili-Concern” and 3.
In the same order, the values of `CC[N+](CC)(CCNC(=O)C(=O)NCC[N+](CC)(CC)Cc1ccccc1Cl)Cc1ccccc1Cl` [AMBENONIUM] are “No-Dili-Concern” and 0.
In the same order, the values of `COC(c1ccccc1)(c1ccccc1)[C@H](Oc1nc(C)cc(C)n1)C(=O)O` [AMBRISENTAN] are “Ambiguous-Dili-Concern” and 7.
`NCCCNCCSP(=O)(O)O` [AMIFOSTINE]: the DILI_Concern result in the data set listed under Homo sapiens [1] is recorded as “No-Dili-Concern”. For the same compound, the DILI_severity_class in the data set filed under Homo sapiens [2] was found to be 0.
The corresponding values for `NCC[C@H](O)C(=O)N[C@@H]1C[C@H](N)[C@@H](O[C@H]2O[C@H](CN)[C@@H](O)[C@H](O)[C@H]2O)[C@H](O)[C@H]1O[C@H]1O[C@H](CO)[C@@H](O)[C@H](N)[C@H]1O` [AMIKACIN] are “No-Dili-Concern” and 0.
The corresponding values for `N=C(N)NC(=O)c1nc(Cl)c(N)nc1N` [AMILORIDE] are “Less-Dili-Concern” and 3.
The corresponding values for `O=C(O)CCCCCCNC1c2ccccc2CCc2ccccc21` [AMINEPTINE] are “Most-Dili-Concern” and 8.
For `NCCCCCC(=O)O` [AMINOCAPROIC ACID], in the data set listed under Homo sapiens [1], the DILI_Concern entry was “No-Dili-Concern”. Moreover, in the data set listed under Homo sapiens [2], the DILI_severity_class was found to be 0.
Turning to `Nc1ccc(C(=O)NCC(=O)O)cc1` [AMINOHIPPURIC ACID], the DILI_Concern result in the data set filed under Homo sapiens [1] is “No-Dili-Concern”. Besides, the DILI_severity_class in the data set listed under Homo sapiens [2] was found to be 0.
As to `Cn1c(=O)c2[nH]cnc2n(C)c1=O.Cn1c(=O)c2[nH]cnc2n(C)c1=O.NCCN` [AMINOPHYLLINE], the DILI_Concern entry in the data set filed under Homo sapiens [1] is “No-Dili-Concern”. Further, the DILI_severity_class in the data set filed under Homo sapiens [2] stood at 0.
In the same order, the values of `Nc1ccc(C(=O)O)c(O)c1` [AMINOSALICYLIC ACID] are “Most-Dili-Concern” and 5.
Consider `CCCCc1oc2ccccc2c1C(=O)c1cc(I)c(OCCN(CC)CC)c(I)c1` [AMIODARONE], for which the DILI_Concern entry in the data set listed under Homo sapiens [1] was “Most-Dili-Concern”. The DILI_severity_class in the data set listed under Homo sapiens [2] is reported as 8.
The corresponding values for `CN(C)CCC=C1c2ccccc2CCc2ccccc21` [AMITRIPTYLINE] are “Less-Dili-Concern” and 5.
The corresponding values for `CCOC(=O)C1=C(COCCN)NC(C)=C(C(=O)OC)C1c1ccccc1Cl` (stereo not given) [AMLODIPINE] are “Less-Dili-Concern” and 5.
The corresponding values for `Cl.N` [AMMONIUM CHLORIDE] are “No-Dili-Concern” and 0.
For `Clc1ccc2c(c1)C(N1CCNCC1)=Nc1ccccc1O2` [AMOXAPINE], the DILI_Concern result in the data set listed under Homo sapiens [1] is recorded as “Ambiguous-Dili-Concern”. The DILI_severity_class in the data set filed under Homo sapiens [2] was found to be 3.
In the same order, the values of `CC1(C)S[C@@H]2[C@H](NC(=O)[C@H](N)c3ccc(O)cc3)C(=O)N2[C@H]1C(=O)O` [AMOXICILLIN] are “Less-Dili-Concern” and 5.
In the case of `CC(N)Cc1ccccc1` (stereo not given) [AMPHETAMINE], the DILI_Concern entry in the data set filed under Homo sapiens [1] is on record as “Less-Dili-Concern”. In the data set listed under Homo sapiens [2], the DILI_severity_class was determined as 0.
The corresponding values for `C[C@@H]1[C@H](O)[C@@H](C)/C=C/C=C/C=C/C=C/C=C/C=C/C=C/[C@H](O[C@@H]2O[C@H](C)[C@@H](O)[C@H](N)[C@@H]2O)C[C@@H]2O[C@](O)(C[C@@H](O)C[C@@H](O)[C@H](O)CC[C@@H](O)C[C@@H](O)CC(=O)O[C@H]1C)C[C@H](O)[C@H]2C(=O)O` [AMPHOTERICIN B] are “Less-Dili-Concern” and 3.
The corresponding values for `CC1(C)S[C@@H]2[C@H](NC(=O)[C@H](N)c3ccccc3)C(=O)N2[C@H]1C(=O)O` [AMPICILLIN] are “Less-Dili-Concern” and 3.
In the same order, the values of `O=C1CN2Cc3c(ccc(Cl)c3Cl)N=C2N1` [ANAGRELIDE] are “Ambiguous-Dili-Concern” and 3.
For the compound `CC(C)(C#N)c1cc(Cn2cncn2)cc(C(C)(C)C#N)c1` [ANASTROZOLE], the DILI_Concern entry in the data set filed under Homo sapiens [1] is “Less-Dili-Concern”. The DILI_severity_class in the data set listed under Homo sapiens [2] came out at 3.
In the same order, the values of `CCCCCOc1ccc(-c2ccc(-c3ccc(C(=O)N[C@H]4C[C@@H](O)[C@@H](O)NC(=O)[C@@H]5[C@@H](O)[C@@H](C)CN5C(=O)[C@H]([C@@H](C)O)NC(=O)[C@H]([C@H](O)[C@@H](O)c5ccc(O)cc5)NC(=O)[C@@H]5C[C@@H](O)CN5C(=O)[C@H]([C@@H](C)O)NC4=O)cc3)cc2)cc1` [ANIDULAFUNGIN] ({pTerphenylCO(4''-OnC5H11)}-[Orn(4R-OH,5R-OH)]T[Hyp][hTyr(3S-OH,4S-OH)]T[Pro(3S-OH,4S-Me)]; lactam 1-C) are “Ambiguous-Dili-Concern” and 7.
Turning to `CCCCN1C(=O)[C@@H]([C@H](O)C2CCCCC2)NC(=O)C12CCN(Cc1ccc(Oc3ccc(C(=O)O)cc3)cc1)CC2` [APLAVIROC], in the data set listed under Homo sapiens [1], the DILI_Concern entry is given as “Most-Dili-Concern”. Also, the DILI_severity_class in the data set listed under Homo sapiens [2] is listed as 8.
The corresponding values for `CN1CCc2cccc3c2[C@H]1Cc1ccc(O)c(O)c1-3` [APOMORPHINE] are “No-Dili-Concern” and 0.
The corresponding values for `C[C@@H](O[C@H]1OCCN(Cc2n[nH]c(=O)[nH]2)[C@H]1c1ccc(F)cc1)c1cc(C(F)(F)F)cc(C(F)(F)F)c1` [APREPITANT] are “Ambiguous-Dili-Concern” and 3.
The corresponding values for `CC1CNc2c(cccc2S(=O)(=O)N[C@@H](CCCNC(=N)N)C(=O)N2CC[C@@H](C)C[C@@H]2C(=O)O)C1` (stereo not given in full) [ARGATROBAN] are “No-Dili-Concern” and 0.
Consider `N=C(N)NCCC[C@H](N)C(=O)O` [ARGININE], for which the DILI_Concern result in the data set listed under Homo sapiens [1] was “No-Dili-Concern”. Further, the DILI_severity_class in the data set filed under Homo sapiens [2] was 0.
In the same order, the values of `O=C1CCc2ccc(OCCCCN3CCN(c4cccc(Cl)c4Cl)CC3)cc2N1` [ARIPIPRAZOLE] are “Ambiguous-Dili-Concern” and 5.
The corresponding values for `NC(=O)C[S@@+]([O-])C(c1ccccc1)c1ccccc1` [ARMODAFINIL] are “Ambiguous-Dili-Concern” and 3.
For the compound `O=[As][As+](=O)[O-]` (stereo not given) [ARSENIC TRIOXIDE], in the data set filed under Homo sapiens [1], the DILI_Concern result is “Ambiguous-Dili-Concern”. Also, in the data set filed under Homo sapiens [2], the DILI_severity_class is 3.
In the same order, the values of `O=C1O[C@H]([C@@H](O)CO)C(O)=C1O` [ASCORBIC ACID] are “No-Dili-Concern” and 0.
In the same order, the values of `CC(=O)Oc1ccccc1C(=O)O` [ASPIRIN] are “Less-Dili-Concern” and 0.
The corresponding values for `COC(=O)N[C@H](C(=O)N[C@@H](Cc1ccccc1)[C@@H](O)CN(Cc1ccc(-c2ccccn2)cc1)NC(=O)[C@@H](NC(=O)OC)C(C)(C)C)C(C)(C)C` [ATAZANAVIR] are “Less-Dili-Concern” and 3.
